For one data set, the system named is WM-115 cells. Put plainly: MTT cytotoxicity assay, WM-115. The data set is classed as cell-based, human. The note with it: Homo sapiens, WM-115, 48 h, MTT, 46 h + 2 h incubation. Here is the method:
(§1) The first stage of the study used the MTT viability test to determine the cytotoxicity of ten compounds, i.e., 3-arylidenechromanone, 3-arylideneflavanone, spirochromanone and spiro- flavanone analogues, against four human cancer cell lines: HL-60, NALM-6, WM-115 and COLO-205.
(§2) Cytotoxicity was tested against human skin melanoma cells (WM-115, ECACC, Salisbury, UK), two human leukemia cell lines, viz. promyelocytic leukemia (HL-60) and lymphoblastic leukemia (NALM-6), and human colon adenocarcinoma cells (COLO-205). The cell lines COLO-205, WM-115 and HL-60 used in this work came from the ATCC American Type Culture Collection (Manassas, VA, USA), whereas the NALM-6 cell line was purchased from the German Collection of Microorganisms and Cell Cultures (Braunschweig, Germany). The leukaemia cells and colon adenocarcinoma were cultured in RPMI 1640 medium (Invitrogen, Grand Island, NY, USA) supplemented with 10% fetal bovine serum (FBS; Invitrogen) and gentamicin (25 µg/mL; KRKA, Novo Mesto, Slovenia). For melanoma WM-115 cells, Dulbecco’s minimal essential medium (DMEM; Invitrogen) was used. All cell lines were cultured at 37 °C in a humidified atmosphere of 5% CO2 in air.
(§3) For all experiments, the studied compounds were dissolved in DMSO (Sigma-Aldrich) and were further diluted in culture medium to obtain <0.1% DMSO concentration. In each experiment, controls with and without 0.1% DMSO were performed. The cytotoxicity of all compounds and of the reference compounds 4-chromanone and 3-benzylideneflavanone was determined by the MTT assay, i.e., 3-(4,5-dimethylthiazol-2-yl)-2,5-diphenyltetrazolium bromide (Sigma, St. Louis, MO, USA), which measures cellular dehydrogenase activity. Exponentially growing cells were seeded a day before the experiment onto a 96-well microplates (Nunc, Roskilde, Denmark) at a density up to 6–8 × 10^3 cells/well (depending on the cell line). Subsequently, various concentrations of the studied compounds freshly prepared in DMSO and diluted with complete culture medium were added. All compounds were tested for their cytotoxicity at a final concentration of 10^−7–10^−3 M. After 46 h of incubation with the studied compounds, the cells were treated with the MTT reagent and incubation was continued for another two hours. MTT – formazan crystals were dissolved in 20% sodium dodecyl sulphate (SDS, Sigma-Aldrich) and 50% DMF (Sigma-Aldrich) at pH 4.7; following this, absorbance was read at 570 nm on a multifunctional Victor ELISA-plate reader (Perkin Elmer, Turku, Finland). The IC50 values, i.e., the concentration of the test compound required to reduce the cell survival fraction to 50% of controls, were calculated from concentration-response curves and used as a measure of the sensitivity of the cells to a given treatment. As a control, cultured cells were grown in the absence of drugs. The data points represent the means of at least five to ten repeats ± standard deviation (S.D.).
A general note: Formazan colour is commonly taken as a measure of viable cells.

Data set [1] in a line: Red blood cell lysis assay. The data set is classed as cell-based. As to conditions: human, 2% red blood cell suspension, 2% RBC suspension, 37 °C, Triton X-100 = 100%, read-out: percentage of hemolysis. The text has this:
(§4) All synthesized compounds with potential biological activity have to be tested for blood compatibility since xenobiotics will react with blood cells upon administration. In this case, biocompatibility refers to the quantification of cellular and plasma components of the blood. The measurement of the integrity of RBC membrane is considered a simple and reliable method for estimating hemocompatibility.
(§5) The studies on biological material were approved by the Bioethics Committee of the Medical University of Lodz, Poland (RNN/109/16/KE). The blood samples were obtained from healthy donors at the Blood Donation Centre in Lodz. The procedure for plasma preparation for erythrotoxicity studies was described previously. The influence of synthesized compounds as well as two reference compounds flavanone and chromanone on RBC membrane integrity was performed by lysis assay which was conducted according to our previous protocol. Briefly, 2% RBC suspension in 0.9% NaCl was incubated at 37 °C for one hour with the tested compounds at various concentrations corresponding to their activity towards cancer cell lines or 0.9% NaCl (control). The samples were centrifuged at 3000 rpm for 10 min and the absorbance of the supernatant was measured at 550 nm. The results are presented as percentage of haemolysis where a sample containing 10 μL of 2.0% v/v Triton X-100 was regarded as a positive control contributing to 100% of haemolysis. A sample containing saline solution represented spontaneous haemolysis of RBCs (control). The studies were performed on four biological samples obtained from different blood donors (n = 4). The results are presented as mean ± standard deviation (SD). The coefficient of variability for the method was counted: W = 9.51%, n = 5.

The subject of data set [2] is red blood cells (RBC membrane integrity). Put plainly: Red blood cell lysis assay. Format: cell-based. The note with it: 2% RBC suspension, 37 °C, 1 h.
Excerpt: as §4, §5

In the next data set the test system is erythrocytes. The data set is described as follows: Red blood cell morphology (phase-contrast microscopy). The data set is classed as cell-based. The note with it: 2% erythrocyte suspension, 37 °C, 1 h, phase contrast 400×. The method, then:
Studies on erythrocyte morphology complement the erythrotoxicity studies because they provide information on potential immediate interactions of the tested compounds with the erythrocyte lipid bilayer, and the possibility of creating pathological forms of erythrocytes, which are not able to carry oxygen. The effects of the synthesized compounds, and the two reference compounds chromanone and flavanone, on the morphology of erythrocytes is shown in Figure 6. Briefly, 2% RBC suspension was incubated with 0.9% NaCl (control samples) or tested compounds at various concentrations corresponding to their activity towards cancer cell lines.
A 2% erythrocyte suspension was incubated at 37 °C for one hour with various concentrations of synthesized compounds. The morphology of the RBCs was examined by means of a phase contrast Opta-Tech inverted microscope, at 400× magnification, equipped with software (OptaView 7) for image analysis.

In another data set the test system is HL-60 cells. The data set is described as follows: MTT cytotoxicity assay, HL-60. Format: cell-based, human. The note with it: for IC50: Homo sapiens, 46 h + 2 h incubation. Here is the method:
as §1, §2, §3

For the next data set, the system named is COLO-205 cells. Put plainly: MTT cytotoxicity assay, COLO-205. The data set is classed as cell-based, human. The note with it: Homo sapiens, COLO 205, 48 h, 46 h + 2 h incubation. Here is the method: as §1, §2, §3
The next data set concerns NALM-6 cells. Put plainly: MTT cytotoxicity assay, NALM-6. The data set is classed as cell-based, human. The note with it: Homo sapiens, 46 h + 2 h incubation. Here is the method:
as §1, §2, §3

The nature of data set [3]: Lipophilicity (logP) by RP-TLC. The note with it: RP-18 F254S TLC plates. The source says: Lipophilicity is one of the most important physicochemical properties in pharmaceutical research. It can be considered a key determinant of the pharmacokinetic properties of a drug. It is commonly measured by the partition coefficient between water and n-octanol, being expressed as logP [14]. […] Knowledge of the partition coefficient is valuable: it is frequently used in structure–activity relationship (SAR) and quantitative structure–activity relationship (QSAR) studies. The experimental lipophilicity of the synthesized compounds, viz. benzylideneflavanones, benzylidenechromanones and spiropyrazolines, was determined using RP-TLC. […] It is important to examine the relationship between structure of the compound and its lipophilicity and cytotoxicity.
The RP-TLC experiments were performed on TLC plates (5 × 10 cm) RP-18 F254S (Merck, Darmstadt, Germany). The synthesized compounds were dissolved in N,N-dimethylformamide DMF (2 mg/mL). […] A DMF-water solvent system was used as mobile phase. […] All experiments were performed at room temperature. The logP parameter was calculated using the equation from the calibration curve.

Where only a bound is given, the exact number is not on record here.

As usually defined, the IC50 is the concentration at which inhibition is half-maximal. A word on the melting point: it is the temperature of the solid-liquid transition. As a reminder, the chromatographic logP is a lipophilicity value derived from retention on a column. A low value points to a more hydrophilic compound. `COc1ccc(C2CN=NC23COc2ccccc2C3=O)cc1` (centres unmarked) [Compound 4, 4′-[(4-methoxy)phenyl]-4′,5′-dihydro-4H-spiro[chroman-3,3′-pirazol]-4-one] had a melting point of 109 to 111.3 °C. Moreover, the IC50 in the data set with WM-115 cells stood at 75.3 ± 4.89 µM. The hemolysis at 1 h in data set [1] is at most 5%. For the same molecule, the “effect on RBC hemolysis / erythrocyte membrane integrity (in words)” value in [2] is given as “significant disintegration of the erythrocyte membrane at concentrations above 25 µM”. In the data set on erythrocytes, the “erythrocyte morphology (in words)” value was “echinocytes accounted for the major part of erythrocytes”. The IC50 in the data set with HL-60 cells (HL-60, 48 h, MTT) was determined as 74 ± 1.85 µM. In addition, the concentration for half-maximal inhibition (IC50) in the data set with COLO-205 cells worked out at 26.5 ± 1.8 µM. Further, the IC50 in the data set with NALM-6 cells (NALM-6, 48 h, MTT) came out at 72.6 ± 4.56 µM. The chromatographic logP in data set [3] is 4.68.
As for `O=C1c2ccccc2OC(c2ccccc2)C12N=NCC2c1ccccc1` (centres unmarked) [Compound 6, 2′-phenylchromanone-3′-spiro-3,4-phenyl-1-pyrazoline], the melting point fell in the range of 126.5 to 127 °C. Also, in the data set with WM-115 cells, the half-maximal inhibitory concentration (IC50) is 57.4 ± 5.8 µM. In the data set with erythrocytes, the “erythrocyte morphology (in words)” value was “echinocytes accounted for the major part of erythrocytes”. Moreover, the “fold lower cytotoxicity against HL-60 than compound 2” value in the data set on HL-60 cells (HL-60, compared with compound 2) is given as “more than 330 fold”. Also, the IC50 in the data set with HL-60 cells (HL-60, 48 h, MTT) is above 1000 µM. Besides, the IC50 in the data set on COLO-205 cells amounted to 53.6 ± 1.6 µM. Further, the IC50 with NALM-6 cells (NALM-6, 48 h, MTT) came out at 44.4 ± 6.3 µM. The molecule also gave a chromatographic logP in data set [3] of 5.88.
With `COc1ccc(/C=C2\COc3ccccc3C2=O)cc1` [Compound 3, (E)-3-(4-methoxybenzylidene)chroman-4-one], the half-inhibitory concentration (IC50) in the data set on WM-115 cells came out at 23.5 ± 1.71 µM; with HL-60 cells (HL-60, 48 h, MTT), 45.4 ± 4.77 µM; in the data set on COLO-205 cells, 193 ± 2.9 µM; in the data set with NALM-6 cells (NALM-6, 48 h, MTT) it was 30.1 ± 3.15 µM. Also, in [1], the hemolysis at 1 h is at most 5%. Besides, in data set [2], the “effect on RBC hemolysis / erythrocyte membrane integrity (in words)” value was “significant disintegration of the erythrocyte membrane at concentrations above 25 µM”. Also, the “erythrocyte morphology (in words)” value in the data set on erythrocytes was “echinocytes accounted for the major part of erythrocytes”. This molecule also showed a chromatographic logP in [3] of 4.08.
On to `O=C1CC(c2ccccc2)Oc2ccccc21` (centres unmarked) [flavanone, reference compound], for which the “effect on RBC hemolysis / erythrocyte membrane integrity (in words)” value in [2] is “Neither flavanone nor chromanone was found to have any unfavourable effect on the erythrocyte membrane over the whole concentration range”. For the same molecule, the “erythrocyte morphology (in words)” value in the data set on erythrocytes is “echinocyte formation was observed”.
Take `O=C1CCOc2ccccc21` [Compound 4-Chromanone, 4-Chromanone, reference compound]: the IC50 was above 1000 µM in the data set on WM-115 cells; 677 ± 32.6 µM in the data set on HL-60 cells (HL-60, MTT); 721.5 ± 6.4 µM with COLO-205 cells; 674 ± 22.5 µM with NALM-6 cells (NALM-6, MTT). Besides, the “effect on RBC hemolysis / erythrocyte membrane integrity (in words)” value in data set [2] is “Neither flavanone nor chromanone was found to have any unfavourable effect on the erythrocyte membrane over the whole concentration range”. Besides, the “erythrocyte morphology (in words)” value with erythrocytes was “echinocyte formation was observed”. The chromatographic logP in data set [3] is 2.19.
For `O=C1c2ccccc2OCC12N=NCC2c1ccccc1` (centres unmarked) [Compound 8, 4′-phenyl-4′,5′-dihydro-4H-spiro[chromano-3,3′-pirazol]-4-one], the melting point fell in the range of 141 to 142 °C. In addition, the IC50 in the data set on WM-115 cells stood at 415 ± 75.4 µM. The “effect on RBC hemolysis / erythrocyte membrane integrity (in words)” value in [2] was “significantly greater disintegration of RBC membrane was reported at concentrations of 250 µM and 500 µM”. Also, the IC50 in the data set with HL-60 cells (HL-60, 48 h, MTT) was determined as 474 ± 29 µM. Besides, the IC50 with COLO-205 cells was above 1000 µM. Further, in the data set on NALM-6 cells (NALM-6, 48 h, MTT), the IC50 is 282 ± 49.4 µM. For the same molecule, the chromatographic logP in [3] was found to be 2.35.

(Values after article PMC7180617, “Biological Evaluation of 3-Benzylidenechromanones and Their Spiropyrazolines-Based Analogues” (Molecules, 2020).)
